Assay [1] has as its target GDP-bound NRAS wild-type protein (Homo sapiens, UniProt P01111). Briefly: Binding to NRAS by surface plasmon resonance (SPR), Single Cycle Kinetics. Conditions: SPR; for NRAS/KRAS (ratio of KD value with respect to NRAS to KD value with respect to KRAS) / NRAS/KRAS (ratio of KD value for NRAS to KD value for KRAS): GDP-bound NRAS wild-type vs GDP-bound KRAS wild-type.
The target of assay [2] is GDP-bound HRAS wild-type protein (Homo sapiens, UniProt P01112). The experiment in a line: Binding to HRAS by surface plasmon resonance (SPR), Single Cycle Kinetics. Conditions: SPR; for HRAS/KRAS (ratio of KD value with respect to HRAS to KD value with respect to KRAS) / HRAS/KRAS (ratio of KD value for HRAS to KD value for KRAS): GDP-bound HRAS wild-type vs GDP-bound KRAS wild-type. Background: In SPR one partner is held on a chip, and binding of the other changes the refractive index at the surface.

Where a SMILES comes first, the peptide text is derived from it. Bridges are numbered along the chain shown (N, C = ends). [ ]: non-standard residue; d: D form. The star is where a group is joined. hPhe(3-Cl-4-CF3) = N[C@@H](CCc1ccc(C(F)(F)F)c(Cl)c1)C(=O)O; NPrPhe(4-CF3) = CCCN[C@@H](Cc1ccc(C(F)(F)F)cc1)C(=O)O; NMeGly(cPent) = CN[C@H](C(=O)O)C1CCCC1; Gly(N-propargyl) = C#CCNCC(=O)O; NMeD = CN[C@@H](CC(=O)O)C(=O)O; NMeL = CN[C@@H](CC(C)C)C(=O)O; Morpholide = C1CN(*)CCO1; Ac5c = NC1(C(=O)O)CCCC1; Sar = CNCC(=O)O

Sequence of GDP-bound HRAS wild-type protein (P01112 whole entry): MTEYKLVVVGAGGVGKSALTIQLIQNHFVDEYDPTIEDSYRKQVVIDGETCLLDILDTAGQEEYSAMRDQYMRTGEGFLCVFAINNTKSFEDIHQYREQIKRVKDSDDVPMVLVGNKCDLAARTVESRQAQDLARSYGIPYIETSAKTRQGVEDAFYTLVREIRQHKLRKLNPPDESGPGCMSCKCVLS
Sequence of GDP-bound NRAS wild-type protein (P01111 whole entry): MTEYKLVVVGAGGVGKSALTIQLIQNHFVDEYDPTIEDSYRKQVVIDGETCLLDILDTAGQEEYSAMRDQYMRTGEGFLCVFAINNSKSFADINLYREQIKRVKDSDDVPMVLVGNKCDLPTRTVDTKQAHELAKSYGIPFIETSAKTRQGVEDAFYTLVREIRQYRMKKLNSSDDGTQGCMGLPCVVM

As for `C#CCN1CC(=O)N(C)CC(=O)N(CCC)[C@@H](Cc2ccc(C(F)(F)F)cc2)C(=O)N(C)CC(=O)N[C@@H](CCc2ccc(C(F)(F)F)c(Cl)c2)C(=O)N2CCC[C@H]2C(=O)NC2(CCCC2)C(=O)N(C)[C@@H](C2CCCC2)C(=O)N(C)[C@H](C(=O)N2CCOCC2)CC(=O)N(C)[C@@H](CC(C)C)C(=O)N[C@@H]([C@@H](C)CC)C1=O` [PP0750] ([NMeL]I[Gly(N-propargyl)][Sar][NPrPhe(4-CF3)][Sar][hPhe(3-Cl-4-CF3)]P[Ac5c][NMeGly(cPent)][NMeD]-Morpholide; lactam N-11), the “NRAS/KRAS (ratio of KD value with respect to GDP-bound NRAS wild-type protein to KD value with respect to KRAS)” value in assay [1] (KD ratio NRAS/KRAS) was “B (a compound having 3 or more and less than 10 is denoted as B)”. Further, in assay [2] (KD ratio HRAS/KRAS), the “HRAS/KRAS (ratio of KD value with respect to GDP-bound HRAS wild-type protein to KD value with respect to KRAS)” value is “C (A compound having a KD ratio of 0.1 or more and less than 3 is denoted as C)”.

Regarding `CCC[C@@H]1C[C@H]2C(=O)NC3(CCC3)C(=O)N(C)[C@@H](C3CCCC3)C(=O)N(C)[C@H](C(=O)N(C)C)CC(=O)N(C)[C@@H](CC)C(=O)N[C@@H]([C@@H](C)CC)C(=O)N(C)CC(=O)N(C)[C@H]3C/C=C\CCN(C3=O)[C@@H](Cc3ccc(C)cc3)C(=O)N(C)CC(=O)N[C@@H](CCc3cc(F)c(C(F)(F)F)c(F)c3)C(=O)N2C1` [PP2233], in assay [1], the “NRAS/KRAS (ratio of KD value with respect to NRAS to KD value with respect to KRAS)” value is “A (a compound having 10 or more and less than 20 is denoted as A)”. Moreover, the “HRAS/KRAS (ratio of KD value with respect to HRAS to KD value with respect to KRAS)” value in assay [2] is “A (a compound having 10 or more and less than 20 is denoted as A)”.

With `CC[C@H](C)[C@@H]1NC(=O)[C@H](CC)N(C)C(=O)C[C@@H](C(=O)N(C)CC)N(C)C(=O)[C@H](C2CCCC2)N(C)C(=O)C2(CCC2)NC(=O)[C@@H]2C[C@@H](C)CN2C(=O)[C@H](CCc2ccc(C(F)(F)F)c(OC)c2)NC(=O)CN(C)C(=O)[C@H](Cc2ccc(C)cc2)N2CC/C=C\C[C@@H](C2=O)N(C)C(=O)CN(C)C1=O` [PP1855], the “NRAS/KRAS (ratio of KD value for NRAS to KD value for KRAS)” value in assay [1] (KD ratio) is on record as “AA (a compound having 20 or more is denoted as AA)”. Besides, the “HRAS/KRAS (ratio of KD value for HRAS to KD value for KRAS)” value in assay [2] (KD ratio) is “A (a compound having 10 or more and less than 20 is denoted as A)”.

In the case of `CCCN(C)C(=O)[C@@H]1CC(=O)N(C)[C@@H](CC(F)F)C(=O)N[C@@H]([C@@H](C)CC)C(=O)N(C)CC(=O)N(C)[C@H]2C/C=C\CCN(C2=O)[C@@H](Cc2ccc(C(F)(F)F)cc2)C(=O)N(C)CC(=O)N[C@@H](CCc2ccc(C(F)(F)F)c(OC)c2)C(=O)N2C[C@@H](C)C[C@H]2C(=O)NC2(CC(C)(C)C2)C(=O)N(C)[C@@H](C2CCCC2)C(=O)N1C` [PP1989], in assay [1] (KD ratio), the “NRAS/KRAS (ratio of KD value for NRAS to KD value for KRAS)” value was “A (a compound having 10 or more and less than 20 is denoted as A)”. Moreover, the “HRAS/KRAS (ratio of KD value for HRAS to KD value for KRAS)” value in assay [2] (KD ratio) is “A (a compound having 10 or more and less than 20 is denoted as A)”.

On to `CCC[C@H]1C(=O)N[C@@H]([C@@H](C)CC)C(=O)N2CC[C@H]2C(=O)N(C)[C@H]2C/C=C\CCN(C2=O)[C@@H](Cc2ccc(C(F)(F)F)cc2)C(=O)N(C)CC(=O)N[C@@H](CCc2cc(F)c(C(F)(F)F)c(F)c2)C(=O)N2C[C@H](OCC)C[C@H]2C(=O)NC2(CC(C)(C)C2)C(=O)N(C)[C@@H](C2CCCC2)C(=O)N(C)[C@H](C(=O)N(C)C)CC(=O)N1C` [PP1925], for which, in assay [1] (KD ratio), the “NRAS/KRAS (ratio of KD value for NRAS to KD value for KRAS)” value was “A (a compound having 10 or more and less than 20 is denoted as A)”. Also, the “HRAS/KRAS (ratio of KD value for HRAS to KD value for KRAS)” value in assay [2] (KD ratio) is “A (a compound having 10 or more and less than 20 is denoted as A)”.

Consider `CCO[C@@H]1C[C@H]2C(=O)NC3(CCC3)C(=O)N(C)[C@@H](C3CCCC3)C(=O)N(C)[C@H](C(=O)N3CCOCC3)CC(=O)N(C)[C@@H](CC)C(=O)N[C@@H]([C@@H](C)CC)C(=O)N(C)CC(=O)N(C)[C@H]3CC(C)=CCN(C3=O)[C@@H](Cc3ccc(C(F)(F)F)cc3)C(=O)N(C)CC(=O)N[C@@H](CCc3cc(F)c(C(F)(F)F)c(F)c3)C(=O)N2C1` [PP1041], for which the “NRAS/KRAS (ratio of KD value with respect to NRAS to KD value with respect to KRAS)” value in assay [1] (KD ratio) was “C (A compound having a KD ratio of 0.1 or more and less than 3 is denoted as C)”. The “HRAS/KRAS (ratio of KD value with respect to HRAS to KD value with respect to KRAS)” value in assay [2] (KD ratio) was “C (A compound having a KD ratio of 0.1 or more and less than 3 is denoted as C)”.

The values above are taken from patent US20250230193A1, “CYCLIC COMPOUND HAVING SELECTIVE KRAS INHIBITORY EFFECT ON HRAS AND NRAS” (CHUGAI SEIYAKU KABUSHIKI KAISHA, priority 2022, published 2025).
